This is an account of results in US12502414B2, “Second generation Seneca Valley virus oncolytic therapy: compositions and methods thereof” (SENECA THERAPEUTICS, INC., priority 2019, dated 2025).

“Also recorded” adds a separate entry of the source.

For test [1], the system named is SVV replication in HeLa cells. The test can be described thus: SVV replication in Tem 8+ HeLa cells, virus yield by plaque assay. The test is classed as cell-based. The procedure:
FIG. 2A. SVV replication in HeLa cells can be enhanced with staurosporine (SSP). FIG. 2B. Inhibition of SVV replication by IFN-α can be reversed with SSP in Per.C6 cells. TEM 8+ HeLa cells or Per.C6 cells were pretreated with 500 units IFN-α before infection with SVV at MOI 1. 300 nM SSP was added at time 0. Virus yields determined by plaque assay 24 h post infection. Results are representative of three independent experiments.
FIGS. 3A-3B are series of histogram depicting the effect of Trichostatin A on SVV replication. FIG. 3A. SVV replication in HeLa cells can be enhanced with Trichostatin A. FIG. 3B. Inhibition of SVV replication by IFN-α can be reversed with Trichostatin A in Per.C6 cells. TEM 8+ HeLa cells or Per.C6 cells were pretreated with 500 units IFN-α before infection with SVV at MOI 1. 1 μM Trichostatin A was added at time 0. Virus yields determined by plaque assay 24 h post infection. Results are representative of three independent experiments.
FIGS. 4A-4B are series of histogram depicting the effect of Torin 2 A on SVV replication. FIG. 4A. SVV replication in HeLa cells can be enhanced with Torin 2 A. FIG. 4B. Inhibition of SVV replication by IFN-α can be reversed with Torin 2 in Per.C6 cells. TEM 8+ HeLa cells or Per.C6 cells were pretreated with 500 units IFN-α before infection with SVV at MOI 1. 2 μM Torin 2 was added at time −30 min. Virus yields determined by plaque assay 24 h post infection. Results are representative of three independent experiments.
Cells and viruses. Cells were maintained in DMEM supplemented with 10% fetal bovine serum (Per.C6) or 10% bovine serum (HeLa), 2 mM L-glutamine (Invitrogen), and 1% penicillin-streptomycin. Viral stocks were produced by growth in Per.C6 cells as previously described (23).
Cytokines and Inhibitors. IFN-α and Trichostatin A were purchased from Sigma, Inc. (St. Louis, MO). […] All compounds were dissolved in DMSO.
Virus infections. Infections were performed in 35 mm dishes. Cells were counted at the time of infection and viral stocks were diluted in PBS+0.01% BSA (Sigma, St. Louis, MO) for infections at the appropriate MOI. One hundred microliters of diluted virus were used to infect each plate at 37° C. for 45 min with rocking. Cells were then washed twice with PBS and covered with 1 mL of appropriate media; samples taken at this time are called 0 time point. Mock infected cells were treated with PBS+0.01% BSA instead of virus. Three independent infections were done.
Plaque assays. […]
Removal of acetyl moieties from histones is catalyzed by enzymes known as histone deacetylases (HDACs) and leads to […]. […] Sixteen hours after infection virus yields were determined by plaque assay (FIG. 3A). […]

Test [2] has as its system SVV replication in Per.C6 cells. The test can be described thus: SVV replication in Per.C6 cells with or without IFN-α pretreatment, virus yield by plaque assay. The test is classed as cell-based, human. Conditions: Per.C6 cells pretreated with 500 units IFN-α.
Description: Per.C6 cells were pretreated with 500 units IFN-α before infection with SVV at MOI=1. Virus yields were determined by plaque assay 24 h post infection.
Plaque assays. Samples for virus titration were produced by harvesting cells and medium, followed by three cycles of freezing and thawing and then by centrifugation at 5000×g for 5 min. All titrations were done on monolayers of Per.C6 cells in 35 mm plates. Ten-fold serial dilutions of virus were made in PBS+0.1 mg/ml BSA (Sigma) and 0.1 mL of each dilution was added per well. Plates were incubated at 37° C. for 45 min with rocking and overlay was then added. A two-overlay system was used. […] Plaque assays were incubated for 72 hrs at 37° C. Cells were then fixed with 10% TCA (Sigma) and stained with 0.1% crystal violet (Sigma) in 20% ethanol.

Take `Nc1ccc(-c2ccc3ncc4ccc(=O)n(-c5cccc(C(F)(F)F)c5)c4c3c2)cn1` [Torin 2]: the “enhanced SVV replication by Torin 2 in the presence of IFN-α” value in test [1] (HeLa cells pretreated with 500 units IFN-α, 2 μM Torin 2 at −30 min, SVV MOI 1, 24 h post infection) was “not reduced in the presence of IFN-α”. Besides, the “SVV yields (plaque assay)” value in test [1] (semi-permissive HeLa cells, SVV MOI 1, 2 μM Torin 2 added at time −30 min, 24 h post infection) was “substantially increased SVV yields”. The “SVV replication in the presence of IFN-α” value in test [2] (2 μM Torin 2 at −30 min, SVV MOI 1, 24 h post infection) is “promoted SVV replication”.

On to `CC(/C=C/C(=O)NO)=C\[C@@H](C)C(=O)c1ccc(N(C)C)cc1` [Trichostatin A], for which the “SVV infection of non-permissive HeLa cells (virus yields by plaque assay)” value in test [1] (HeLa cells grown with Trichostatin A for 24 hours before infection, yields sixteen hours after infection (legend: 1 μM at time 0, 24 h)) was “more efficient”. In addition, the “effect on inhibition of SVV replication by IFN-α” value in test [2] (SVV MOI 1, 1 μM Trichostatin A added at time 0, 24 h post infection) is reported as “reversed the inhibitory effect of IFN-α on SVV replication”.

Turning to `CN[C@@H]1C[C@H]2O[C@@](C)([C@@H]1OC)n1c3ccccc3c3c4c(c5c6ccccc6n2c5c31)C(=O)NC4` [staurosporine], the “production of infectious SVV (virus yields by plaque assay)” value in test [1] (Tem 8+ HeLa cells, SVV MOI 1, 300 nM SSP added at time 0, 24 h post infection) is “increased production of infectious SVV”.

On to IFN-α, for which the “production of infectious SVV (virus yields by plaque assay)” value in test [2] (SVV MOI 1, 24 h post infection) is recorded as “significantly reduced production of infectious SVV; also recorded: reduced virus yields”.
